ChEMBL document CHEMBL6134839, “Novel 15-lipoxygenase-1 inhibitor protects cells from RSL3-induced cell death” (Eur J Med Chem, 2025)

Columns and labels:
[1] = target: T1, Polyunsaturated fatty acid lipoxygenase ALOX15 (Homo sapiens, UniProt P16050); assay: Inhibition of human 15-LOX-1 using linoleic acid as substrate preincubated for 10 mins followed by substrate addition
T1 sequence (P16050 whole entry): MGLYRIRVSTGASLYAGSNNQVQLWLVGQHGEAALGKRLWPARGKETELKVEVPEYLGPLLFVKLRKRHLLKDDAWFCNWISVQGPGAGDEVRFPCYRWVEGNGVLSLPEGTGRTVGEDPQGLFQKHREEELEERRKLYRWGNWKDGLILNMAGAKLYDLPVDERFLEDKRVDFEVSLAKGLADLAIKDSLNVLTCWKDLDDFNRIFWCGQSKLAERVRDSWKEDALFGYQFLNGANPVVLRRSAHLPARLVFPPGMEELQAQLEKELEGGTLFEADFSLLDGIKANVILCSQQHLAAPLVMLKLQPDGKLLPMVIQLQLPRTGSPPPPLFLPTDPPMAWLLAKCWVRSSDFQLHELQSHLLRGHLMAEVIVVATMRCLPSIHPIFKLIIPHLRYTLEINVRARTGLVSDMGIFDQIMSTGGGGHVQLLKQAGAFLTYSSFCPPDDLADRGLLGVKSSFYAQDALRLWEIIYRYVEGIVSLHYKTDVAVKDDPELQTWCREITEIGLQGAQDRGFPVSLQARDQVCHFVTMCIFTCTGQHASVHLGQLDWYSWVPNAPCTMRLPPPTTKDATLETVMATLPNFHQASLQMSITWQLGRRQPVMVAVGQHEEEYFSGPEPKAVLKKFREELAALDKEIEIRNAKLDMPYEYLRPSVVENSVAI

[2] = Inhibition of RSL3-induced lipid peroxidation in human HEK293 cells incubated for 3 hrs by C11-BODIPY581/591 probe based flow cytometry analysis; format: functional, cell-based

IC50 [1]: 10 µM | EC50 [2]: 1.2 µM
Compound: c1ccc2c(c1)SCc1c-2[nH]c2ccccc12
